Columns and labels:
TrkB [1] = assay: TrkB activation in SH-SY5Y cells; type: cell-based; conditions: data not shown
AD animal models = conditions: cited from earlier work
TrkB Ig2 = TrkB Ig2 (Homo sapiens, UniProt Q16620); assay: Biacore binding assay, TrkB Ig2
TrkB [2] = assay: TrkB activation in BR6 cells; type: cell-based, human; conditions: data not shown
SH-SY5Y cells = assay: Protection from STS-induced cell death, MTT assay, TrkB-deficient SH-SY5Y cells; type: cell-based
TrkB Ig1 = TrkB Ig1 (Homo sapiens, UniProt Q16620); assay: Biacore binding assay, TrkB Ig1
TrkB Ig1, sequence (Q16620 182-250): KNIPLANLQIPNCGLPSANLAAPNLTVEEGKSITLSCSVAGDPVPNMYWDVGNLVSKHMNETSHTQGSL

BR6 cells = assay: Protection from STS-induced cell death, MTT assay, BR6 cells; type: cell-based, human
GST-TrkB ECD = GST-TrkB ECD (Homo sapiens, UniProt Q16620); assay: Biacore binding assay, GST-TrkB ECD
GST-TrkB ECD, sequence (Q16620 32-428): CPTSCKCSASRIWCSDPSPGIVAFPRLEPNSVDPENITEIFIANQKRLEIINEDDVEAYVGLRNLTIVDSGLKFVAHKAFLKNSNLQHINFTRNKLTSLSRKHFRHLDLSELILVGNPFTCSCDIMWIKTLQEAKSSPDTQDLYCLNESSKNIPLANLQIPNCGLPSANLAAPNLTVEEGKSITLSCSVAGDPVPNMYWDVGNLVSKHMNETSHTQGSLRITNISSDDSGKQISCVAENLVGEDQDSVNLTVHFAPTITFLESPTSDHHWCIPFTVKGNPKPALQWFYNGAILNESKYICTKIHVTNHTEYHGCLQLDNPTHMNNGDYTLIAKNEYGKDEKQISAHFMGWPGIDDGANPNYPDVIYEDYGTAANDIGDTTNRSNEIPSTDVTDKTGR

5xFAD mice = conditions: cited from earlier work

TrkB Ig2, sequence (Q16620 251-340): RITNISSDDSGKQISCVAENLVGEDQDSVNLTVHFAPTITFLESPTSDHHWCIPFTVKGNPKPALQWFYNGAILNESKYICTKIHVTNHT

Row | Compound | TrkB activation (TrkB [1]) | levels of Aβ40 and Aβ42 (AD animal models) | learning and memory deficits (AD animal models; different AD animal models) | association with Ig2 domain (TrkB Ig2) | TrkB activation (TrkB [2]) | protective effect via MTT assay (SH-SY5Y cells) | association with Ig1 domain (TrkB Ig1) | protective profile via MTT assay (BR6 cells) | Kd (GST-TrkB ECD) | Aβ deposition (5xFAD mice; chronic oral administration) | memory deficits (5xFAD mice; dose-dependent)
1 | O=c1cc(-c2ccccc2)oc2c(O)c(O)ccc12 [7,8-DHF, 7,8-dihydroxyflavone] | barely visible | reduces the levels of Aβ40 and Aβ42 | rescues learning and memory deficits | none of them associated with the Ig1 or Ig2 domains | robustly provoked TrkB activation | neither of them displayed a demonstrable effect | none of them associated with the Ig1 or Ig2 domains | comparable protective profiles | 184 nM | – | –
2 | CNC(=O)Oc1ccc2c(=O)cc(-c3ccccc3)oc2c1OC(=O)NC [R13] | – | – | – | – | – | – | – | – | – | inhibits Aβ deposition | improves memory deficits

Reference: paper PMC8269693 (ACS Chemical Neuroscience, 2021)
